The values below come from article PMC6838683, “Discovery of Human Signaling Systems: Pairing Peptides to G Protein-Coupled Receptors” (Cell, 2019).

Common to all, as to format: cell-based
In assay [1] the target is T1, GPR68 (Homo sapiens, UniProt Q15743). The assay is described as follows: Dynamic mass redistribution (DMR), concentration-response. The following applies: GPR68, mean, SEM and n; for EC50: read-out: pEC50, DMR (AUC) (converted). The arrangement: hIL-2Ra signal peptide (N); expressed in transfected cells. The gist of the method: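 Doxycycline-induced (0.1 μg/ml) SNAP-tagged receptors in TREx 293 cells, equilibrated 90 min at 22°C in HEPES-buffered HBSS, pH 7.4, with 0.1% DMSO. Peptide-evoked optical wavelength shift recorded for 60 min at 22°C, buffer/solvent corrected and quantified as area under the curve. Mean ± SEM of at least 3 independent experiments.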
Target sequence in this assay (Q15743 2-365 limits assumed): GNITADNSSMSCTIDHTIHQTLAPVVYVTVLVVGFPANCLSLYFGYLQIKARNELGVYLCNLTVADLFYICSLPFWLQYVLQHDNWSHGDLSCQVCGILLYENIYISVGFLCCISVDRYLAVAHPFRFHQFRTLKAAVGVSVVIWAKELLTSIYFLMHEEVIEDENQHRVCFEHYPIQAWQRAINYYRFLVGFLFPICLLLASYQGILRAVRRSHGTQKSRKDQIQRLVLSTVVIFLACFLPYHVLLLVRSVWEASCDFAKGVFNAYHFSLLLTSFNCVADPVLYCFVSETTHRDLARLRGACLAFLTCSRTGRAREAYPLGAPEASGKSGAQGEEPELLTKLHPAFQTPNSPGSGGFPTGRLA

Assay [2] addresses T1, GPR68. As to the kind of experiment: Real-time receptor internalization (TR-FRET), concentration-response. The arrangement: hIL-2Ra signal peptide (N); expressed in transfected cells. The following applies: GPR68, mean, SEM and n. Put shortly: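 Doxycycline-induced SNAP-tagged receptor cells had surface receptors labelled with Lumi4-Tb and fluorescein-O-acetic acid added. TR-FRET internalization after peptide addition was recorded for 60 min at 37°C (ex 340, em 520/615 nm). Area under the curve, normalized to plate average, gave concentration-response curves.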
(In general: TR-FRET usually uses a lanthanide donor and a delayed reading to cut background.)
Target sequence in this assay (Q15743 2-365 limits assumed): as above

For assay [3], the target named is T1, GPR68. The assay is described as follows: GloSensor cAMP assay (Gs), allosteric operational model fitting. Also on record: expressed in transfected cells; host or cells: HEK293T, transient (PEI), co-transfected with GloSensor cAMP plasmid. The procedure:
GPR68-mediated cAMP signaling was measured using GloSensor cAMP assays as published previously ([Huang et al., 2015], [Yu et al., 2019]) with modifications as indicated below. Calcium- and magnesium-free HBSS was supplemented with different organic buffer reagents for different pH solutions, 20 mM 2-(N-morpholino)ethanesulfonic acid (MES, Alfa Aesar) for pH 6.00 – 6.70, 20 mM 4-(2-hydroxyethyl)-1-piperazineethanesulfonic acid (HEPES, Fisher) for pH 6.80 – 8.20, and 20 mM (tris(hydroxymethyl)methylamino)propanesulfonic acid (TAPS) for pH 8.30 – 8.60. The phosphodiesterase (PDE) inhibitor Ro 20-1724 (10 μM final, Cayman Chemical) was included in pH buffers to eliminate potential effect of PDE […]. HEK293T cells were transfected with a modified polyethylenimine (PEI, Polysciences) transfection method ([Longo et al., 2013]). For a 15-cm dish of HEK293T cells with 25 mL growth medium, 8 μg receptor DNA and 8 μg GloSensor DNA (Promega) were mixed in 1 mL of Opti-MEM medium followed by addition of 80 μL PEI reagents. The mixture was added to cells after 20 min incubation at room temperature. Overnight transfected cells were plated in poly-L-lysine (Sigma) coated 384-well white clear bottom plates (Greiner Bio-One, #781098) using DMEM (Corning) + 1% dialyzed FBS (Omega Scientific) for at least 6 h (up to 24 h). Cells were removed of medium before receiving 20 μL/well of 3.5 mM luciferin (Goldbio) prepared in assay buffer (HBSS, 20 mM TAPS, pH 8.40, 10 μM Ro 20-1724) for 1 h at 37°C. Luciferin loading solutions were removed and premixed drug solutions at desired pH conditions were added to cells (25 μL/well). Luminescence was measured 25-30 min after drug application. Results were normalized (basal and maximum responses in the absence of modulator were set to be 0 and 100%) and pooled for analysis using GraphPad Prism.
All of the other parameters, including allosteric affinity cooperativity (α), allosteric modulator binding affinity KB, orthosteric agonist (protons) efficacy τA, system maximal response, and slope factor n were all globally shared for all datasets for each modulator. […] We therefore used an allosteric index, log(αβ/KB) ([Kenakin, 2017a]), which contains both allosteric binding affinity and cooperativity, to quantify the overall allosteric activity.
Target sequence in this assay (Q15743 whole entry): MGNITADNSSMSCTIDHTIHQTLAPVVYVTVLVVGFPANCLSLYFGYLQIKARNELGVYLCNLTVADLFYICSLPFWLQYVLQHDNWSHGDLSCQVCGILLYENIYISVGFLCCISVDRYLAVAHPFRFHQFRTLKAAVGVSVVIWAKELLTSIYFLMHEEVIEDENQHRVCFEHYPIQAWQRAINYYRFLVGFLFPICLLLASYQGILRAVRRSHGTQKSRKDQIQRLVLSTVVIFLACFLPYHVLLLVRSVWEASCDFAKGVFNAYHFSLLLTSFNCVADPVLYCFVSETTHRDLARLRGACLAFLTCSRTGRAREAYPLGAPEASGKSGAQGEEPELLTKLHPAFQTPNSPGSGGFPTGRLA
In general terms: Changes in cAMP serve as a functional read-out for many G protein-coupled receptors.

Setting [4] is: GPR68, pH 7.4, tested as PAM, data from resynthesized peptide, mean, SEM and n.

Structures are written as SMILES. Positions of bridges follow the written chain, without caps; N, C: chain ends. Residues, ends and D or L forms follow the SMILES beside them.

As for `CC[C@H](C)[C@H](NC(=O)[C@H](CCCNC(=N)N)NC(=O)[C@H](C)NC(=O)CNC(=O)[C@H](CCCCN)NC(=O)[C@H](CCCNC(=N)N)NC(=O)[C@@H](NC(=O)[C@H](C)NC(=O)[C@@H]1CSSC[C@H](NC(=O)[C@H](CCSC)NC(=O)[C@@H]2CCCN2C(=O)[C@@H](NC(=O)[C@H](CCC(N)=O)NC(=O)CNC(=O)[C@@H](N)Cc2ccc(O)cc2)C(C)C)C(=O)N[C@@H](CC(=O)O)C(=O)N[C@@H](C)C(=O)NCC(=O)N[C@@H](CCC(=O)O)C(=O)N[C@@H](CCC(N)=O)C(=O)N1)C(C)C)C(N)=O` [CART(42-89)_(9-28)] (H-YGQVPMCDAGEQCAVRKGARI-NH2; disulfide 7-13; N-terminus assumed), the “Emax, DMR (AUC)” value at GPR68 [1] amounted to 944453.3. In addition, the EC50 on GPR68 [1] is 1.05 µM; at GPR68 [2] (read-out: pEC50, Internalization (AUC) (converted)), 3.55 µM; at GPR68 [3] (GPR68, pH 7.4, tested as PAM, data from resynthesized peptide, mean, SEM and n, read-out: pEC50, cAMP (fold over basal, pH 7.4) (converted)) it was 4.57 µM. Also, the “Emax, Internalization (AUC)” value at GPR68 [2] is listed as 9.4. Also, on GPR68 [3] (setting [4]), the “Emax, cAMP (fold over basal, pH 7.4)” value is reported as 25.2 fold over basal.

Consider `CC(C)C[C@H](NC(=O)[C@@H]1CCCN1C(=O)[C@H](Cc1ccccc1)NC(=O)[C@H](C)NC(=O)[C@H](CCC(=O)O)NC(=O)[C@H](C)NC(=O)[C@H](CO)NC(=O)[C@H](CCC(=O)O)NC(=O)[C@H](CC(N)=O)NC(=O)[C@H](CCC(=O)O)NC(=O)[C@H](C)NC(=O)[C@@H](NC(=O)[C@H](CC(N)=O)NC(=O)[C@@H]1CCCN1C(=O)[C@H](Cc1ccc(O)cc1)NC(=O)[C@@H](NC(=O)[C@H](CCCCN)NC(=O)[C@@H](NC(=O)[C@@H]1CCCN1C(=O)[C@H](CCCNC(=N)N)NC(=O)[C@@H](N)CCCNC(=N)N)C(C)C)C(C)C)C(C)C)C(=O)N[C@@H](CCC(=O)O)C(=O)N[C@@H](Cc1ccccc1)C(=O)O` [Corticotropin_(17-40)] (H-RRPVKVYPNVAENESAEAFPLEF-OH; N-terminus and C-terminus assumed), for which, at GPR68 [1], the “Emax, DMR (AUC)” value stood at 781397.0 and the EC50 is 1.29 µM. Moreover, at GPR68 [2], the “Emax, Internalization (AUC)” value is 4.7 and the “pEC50, Internalization (AUC)” value is “Response >1uM”. The EC50 on GPR68 [3] is 7.41 µM. Also, the “Emax, cAMP (fold over basal, pH 7.4)” value on GPR68 [3] (setting [4]) came out at 24.2 fold over basal.
